Earlier results, collected in patent US7399860B2, “Manufacture of polyglutamate-therapeutic agent conjugates” (Cell Therapeutics Inc., priority 1999, dated 2008).

Test system: tumor
Settings: tumor-bearing hosts; U.S. Pat. No. 5,977,163; Li et al. 1998

Substance: polyglutamic acid-paclitaxel conjugate
- efficacy compared with the unconjugated form of the drug: increased efficacy
